Measurements as given in patent US20070015174A1, “High throughput formulation screening of drug candidates” (priority 2005, published 2007).
≈ marks a conversion by molar mass, not a printed value. Where two headings read alike, the source gives them in different places.

Assays:
[1] = cited from earlier work
[2] = High throughput formulation screening: solubility of compound in 96 formulations (5 μL scale, image capture); type: physicochemical; conditions: for solubility: thermodynamic from solid
Experimental: The solubility of the compound in the various excipients is then evaluated by comparing the captured images (e.g., first, second, third, and fourth images). […] All stock solutions were prepared with ultrapure ASTM Type I water and sterile-filtered using a 0.22 micron filter. The solutions were then attached to the MATRIX MAKER liquid-handling robot for sterile path, positive pressure dispensation into an SBS (Society for Biomolecular Screening) standard-sized 96 deep well plates. The screening formulations are defined in the CRYSTAL MINER software, which drives the MATRIX MAKER and allows for the rapid development of refinement screens for the optimization of lead hits. Once the formulations have been dispensed, the plate is sealed and centrifuged at 2000 rpm to ensure that each well contains a homogeneous solution. […] The DROP MAKER micro-scale liquid handler then dispenses 5 μL of the compound solution into a 96-well SBS format plate. […] Images were then captured of each well by the CRYSTAL MONITOR workstation (Session 1). Then 5 μL of each formulation screening solution were added to separate wells and images were captured for each well (Session 2) as above. Following image capture, the plate was heated to 45° C. for 30 minutes, then agitated for 10 minutes at room temperature during cool down. Additional images are captured on day one (t=1, Session 3) and day three (t=3, Session 4). Images and data annotation are exported to Excel for final report generation. The solubility of triclocarban in the formulations screening set (96 conditions) was obtained after the high throughput screening at target solubility of 10 mg/mL by the method described above: […]

## O=C(Nc1ccc(Cl)cc1)Nc1ccc(Cl)c(Cl)c1 [TCC, 3,4,4′-trichlorocarbanilide]
[1]; 20% RMbCD with additives
  solubility: about 5 mg/mL
[1]; acetone
  solubility in organic solvents: soluble
[1]; propylene glycol
  solubility in organic solvents: to some extent
[1]; pure water, room temperature
  intrinsic solubility (S0): less than 50 ng/ml
[1]; water
  solubility in water: water-insoluble
[2]; 10 mg/mL, IV dosing solution PEG 300/polysorbate 80/EtOH/SGF (40/5/5/50)
  solubility in formulation: nearly completely dissolved
[2]; 10 mg/mL, IV dosing solution PEG 300/polysorbate 80/SGF (45/5/50)
  solubility in formulation: nearly completely dissolved
[2]; 10 mg/mL, NMP/polysorbate 80 (9/1)
  solubility in formulation: easily dissolved
[2]; 10 mg/mL, PEG 300/polysorbate 80 (9/1)
  solubility in formulation: easily dissolved
[2]; 10 mg/mL, PEG 400/polysorbate 80/EtOH (8/1/1)
  solubility in formulation: easily dissolved
[2]; 10 mg/mL, PEG 400/polysorbate (3/1)
  solubility in formulation: easily dissolved
[2]; 10 mg/mL, SEDDS carpryol 90/PEG 400/cremophor EL (4/3/3)
  solubility in formulation: dissolved
[2]; 10 mg/mL, SEDDS labrafac CC/imwitor 988/cremophor (25/27/48)
  solubility in formulation: dissolved
[2]; 10 mg/mL, SEDDS sesame oil/maisine 35-1/polysorbate 80 (25/27/48)
  solubility in formulation: dissolved
[2]; 10 mg/mL, SEDDS soybean oil/maisine 35-1/polysorbate 80/EtOH (35/20/35/10)
  solubility in formulation: dissolved
[2]; 10 mg/mL, cosolvent PEG 400/EtOH (7/3)
  solubility in formulation: easily dissolved
[2]; 10 mg/mL, cosolvent PEG 400/EtOH/PG (4/1/5)
  solubility in formulation: easily dissolved
[2]; Carpryol 90 (formulation screening solution), oil or lipid, target 10 mg/mL, Carpryol 90
  solubility: ~10000 µg/mL (≈ 31.7 mM)
[2]; Cremophor EL (formulation screening solution), aqueous with cosolvent or surfactant or cyclodextrin, target 10 mg/mL, Cremophor EL
  solubility: ~10000 µg/mL (≈ 31.7 mM)
[2]; Labrafil M 1944 CS (formulation screening solution), oil or lipid, target 10 mg/mL, Labrafil M 1944 CS
  solubility: ~10000 µg/mL (≈ 31.7 mM)
[2]; Labrasol (formulation screening solution), aqueous with cosolvent or surfactant or cyclodextrin, target 10 mg/mL, Labrasol
  solubility: ~10000 µg/mL (≈ 31.7 mM)
[2]; N-methyl-2-pyrrolidinone (formulation screening solution), organic solvent or mixture, target 10 mg/mL, N-methyl-2-pyrrolidinone
  solubility: ~10000 µg/mL (≈ 31.7 mM)
[2]; Softigen 767 (formulation screening solution), aqueous with cosolvent or surfactant or cyclodextrin, target 10 mg/mL, Softigen 767
  solubility: ~10000 µg/mL (≈ 31.7 mM)
[2]; lauroglycol FCC (formulation screening solution), oil or lipid, target 10 mg/mL, lauroglycol FCC
  solubility: ~10000 µg/mL (≈ 31.7 mM)
[2]; peppermint oil (formulation screening solution), oil or lipid, target 10 mg/mL, peppermint oil
  solubility: ~10000 µg/mL (≈ 31.7 mM)
[2]; target 10 mg/mL, 20% TPGS
  solubility in formulation: partially dissolved
[2]; target 10 mg/mL, 20% povidone
  solubility in formulation: neither glycerine, safflower oil, sesame oil, nor 20% povidone had any effect
[2]; target 10 mg/mL, Capmul MCM C8
  solubility in formulation: dissolve TCC completely
[2]; target 10 mg/mL, HPbCD
  solubility in formulation: partially dissolved
[2]; target 10 mg/mL, Imwitor 988
  solubility in formulation: dissolve TCC completely
[2]; target 10 mg/mL, PEG 300
  solubility in formulation: dissolve TCC completely
[2]; target 10 mg/mL, PEG 400
  solubility in formulation: dissolve TCC completely
[2]; target 10 mg/mL, Polysorbate 80
  solubility in formulation: dissolve TCC completely
[2]; target 10 mg/mL, RMbCD
  solubility in formulation: partially dissolved
[2]; target 10 mg/mL, adjustment of pH to between 2 and 10
  solubility in formulation: no effect
[2]; target 10 mg/mL, corn oil
  solubility in formulation: partially dissolved
[2]; target 10 mg/mL, dimethylacetamide
  solubility in formulation: dissolve TCC completely
[2]; target 10 mg/mL, glycerine
  solubility in formulation: neither glycerine, safflower oil, sesame oil, nor 20% povidone had any effect
[2]; target 10 mg/mL, imwitor 380
  solubility in formulation: partially dissolved
[2]; target 10 mg/mL, labrafac CC
  solubility in formulation: partially dissolved
[2]; target 10 mg/mL, maisine 35-1
  solubility in formulation: partially dissolved
[2]; target 10 mg/mL, neobee M-5
  solubility in formulation: partially dissolved
[2]; target 10 mg/mL, oleic acid
  solubility in formulation: partially dissolved
[2]; target 10 mg/mL, safflower oil
  solubility in formulation: neither glycerine, safflower oil, sesame oil, nor 20% povidone had any effect
[2]; target 10 mg/mL, sesame oil
  solubility in formulation: neither glycerine, safflower oil, sesame oil, nor 20% povidone had any effect
[2]; target 10 mg/mL, soybean oil
  solubility in formulation: partially dissolved
